In test [1] the test system is trapezius muscle of patients with chronic tension-type headache. In words: Muscle hardness of the trapezius muscle (hardness meter) after L-NMMA. Format: in vivo, human. The following applies: 6 mg/kg i.v. An excerpt: (§1) Sixteen patients with a diagnosis of chronic tension-type headache according to the criteria of the International Headache Society (Headache Classification Committee 1988) were included (Table XVII). Five of the patients had coexisting infrequent migraine (<four days/year). The patients were recruited from the out-patient headache clinic at Glostrup University Hospital without respect to presence or absence of myofascial tenderness. All patients underwent a general physical and a neurological examination and completed a diagnostic headache diary during a 4-week run-in period (Russell et al. 1992). […]
Muscle hardness. The muscle hardness of the trapezius muscle was measured with a hardness meter, which has previously been described in detail (Horikawa et al. 1993). […]
(§2) The recordings were performed in a standardized manner by the same observer, a trained technician (HA), throughout the study. All parameters were recorded at baseline, 60 and 120 minutes after start of infusion. […] Headache intensity was measured on a 100 mm Visual Analog Scale (VAS) (0-no headache and 100-worst imaginable headache) before, during and after start of infusion.
Muscle hardness. The muscle hardness was measured at a standard anatomical point on the trapezius muscle On the non-dominant side, as previously described (Ashina et al. 1998b). […] The muscle hardness was calculated as the mean of five consecutive determinations. […]

In test [2] the test system is patients with chronic tension-type headache. Description: Pressure pain detection thresholds (electronic pressure algometer) after L-NMMA. It is filed as in vivo, human.
From the text: as §1, §2
Pressure pain thresholds Pressure pain detection thresholds (PPDTs) were measured at the dorsum of the second finger (middle phalanx) and at a fixed point at the anterior part of the temporal muscle as previously described (Bendtsen et al. 1996b). […] Each threshold was calculated as the mean of five consecutive determinations performed with intervals of approximately 30 seconds. […]

Entries after “also recorded” stand apart in the source; their conditions may differ.

For `CN=C(N)NCCC[C@H](N)C(=O)O.Cl` [L-NMMA, L-N^G methyl arginine hydrochloride], the “Muscle hardness (summary score) compared with placebo” value in test [1] (p=0.04, hydrochloride) is “significantly more reduced; also recorded: reduces muscle hardness; also recorded: reduced significantly more; also recorded: significantly reduced”. Further, the “Muscle hardness compared with baseline” value in test [1] (p=0.04 and p<0.05) is “significantly reduced at 60 and 120 minutes”. Besides, the “PPDTs compared with pre-treatment values” in test [2] (finger and temporal region, hydrochloride) is “no changes in PPDTs at 60 and 120 minutes; also recorded: largely unchanged”. For the same compound, the “PPDTs compared with placebo” value in test [2] (finger p=0.78, temporal region p=0.77) is given as “no significant difference”.

The record behind these values is US6649605B2, “Treatment of tension-type headaches with NMDA receptor antagonists” (Head Explorer A/S, priority 1996, dated 2003).
